{
  "source": "patent US5438050A",
  "about": "“Indolocarbazole derivatives, processes for their preparation and compositions containing them” (Godecke Aktiengesellschaft, priority 1988, dated 1995)",
  "target": "protein kinase C",
  "assay": "enzyme assay of protein kinase C activated with phosphatidylserine and diacylglycerol (according to EP-OS 0,255,126)",
  "type": "biochemical",
  "details": "read-out: 50% inhibition at a concentration of",
  "experimental": "The compounds according to the invention are potent inhibitors of protein kinases, such as protein kinase C. […] The experiment was carried out according to EP-OS 0,255,126 (inhibition of protein kinase C). Admittedly, indolocarbazoles have already been described as inhibitors of protein kinase C (J Antibiotic 30:275, 1977; Biochem Biophys Res Commun 135:397, 1986). However, it is thereby mainly a question of indolocarbazole-N,N-glycosidesof microbial or semisynthetic origin.",
  "data": [
    {"substance": "2 (and 10)-Chloro-12-ethyl-6,7,12,13-tetrahydro-5-oxo-5H-indolo[2,3-a]pyrrolo[3,4-c]carbazole [Example 3.a]", "values": [
      {"measurement": "IC50", "result": 310, "unit": "nM"}
    ]}
  ]
}
